{
  "source": "patent US20230303712A1",
  "about": "“METHODS OF TREATING GLIOBLASTOMA” (Ramot at Tel-Aviv University Ltd., priority 2020, published 2023)",
  "key": {"[1]": {"tested_on": "human GB cells (PD-GB4, U251, PD-GB 1, PD-GB3)", "experiment": "3D spheroid invasion in Matrigel, human GB cells co-cultured with human microglia", "format": "cell-based", "procedure": "(§1) Tumor spheroids. Tumor spheroids were prepared from mCherry/iRFP/GFP-labeled patient-derived, human U251 or murine GB cells (GL261, iAGR53, PNp53, EGFRviii-shP16), either alone or co-cultured with unlabeled primary human/murine microglia (4:1 ratio), using our modified hanging-drop method, as we previously described. For assessment of cell invasion, GB spheroids (4,000 cells/sphere) were embedded in Matrigel (Corning), seeded in a 96-well plate, and incubated with complete DMEM or complete DMEM supplemented with SELPi (0.5 µM). […] For FACS analysis, GB spheroids (8,000 cells/sphere) were embedded in Matrigel, seeded in a 12-well plate, and treated with complete DMEM, 0% serum microglia medium or microglia CM for 24-48 h. Cells were then recovered using Cell Recovery Solution (Corning) and further analyzed by FACS."}, "[2]": {"tested_on": "murine GB cells (GL261, iAGR53, PNp53, EGFRviii-shP16)", "experiment": "3D spheroid invasion in Matrigel, murine GB cells co-cultured with murine microglia", "format": "cell-based", "procedure": "as §1"}, "iAGR53 tumors": {"tested_on": "iAGR53 tumors", "experiment": "SELPi treatment in murine mesenchymal iAGR53 GB model", "format": "in vivo, C57BL/6 mice", "settings": "iAGR53, 16 mg/kg SELPi IV QOD", "procedure": "Tumor volume was evaluated by MRI. […] Twelve days post cell inoculation, 3 mice per group were euthanized and brain were resected and further processed for histology analysis. […] Brain cannulas (NBT) were implanted intraventricularly in the co-lateral hemisphere and the mice were treated stereotactically via the cannulas (1 µl at 0.2 µl/min flow rate) with PBS, 2 mg/kg SELPi dissolved in DMSO or vehicle (DMSO). Three weeks post cell-inoculation, the mice were euthanized, the cannulas were removed, and tumor volume was evaluated by MRI (MR solutions). Brains were resected for immunostaining.\nSELPi treatments. KF 38789 (SELPi) is a commercially-available P-Selectin inhibitor manufactured by Tocris BioScience. […] This compound is commonly used for research of immune-related processes such as tumor metastases formation. For the experiment described above, SELPi (0.8 mg/ml) was dissolved in DMSO (0.01%), polyethyleneglycol (93.2 mg/ml), Tween-80 (14.8 mg/ml) and DDW. Mice were injected with 16 mg/kg IV, twice a week, three times a week or QOD as described above. As control (vehicle), mice were injected with DMSO (0.01%), polyethyleneglycol (93.2 mg/ml), Tween-80 (14.8 mg/ml), in DDW at equivalent volume.\nMRI imaging. Tumor bearing mice were imaged at the Sackler Cellular & Molecular Imaging Center (SCMIC), Tel Aviv University. […]"}, "[3]": {"experiment": "Blood chemistry and blood count after systemic SELPi", "format": "in vivo, c57/BL mice", "settings": "single IV dose 16 mg/kg, healthy mice, 24 h", "procedure": "To test the effect of SELPi treatment in vivo on mice blood chemistry and blood count, c57/BL mice were injected with 16 mg/kg SELPi IV. Twenty-four hours following injecting, mice were euthanized and blood was collected. Blood samples were analyzed by AML Ltd (Herzliya, Israel). For all models, 50 × 10^3 GB cells were stereotactically injected in 5 µl at 1 µl/min flow rate. Injection coordination relative to the mouse Bregma point were: 2 mm lateral (left), 0.5 mm anterior, 3.5 mm ventral."}},
  "note": "“Also recorded” adds a separate entry of the source.",
  "data": [
    {"smiles": "COc1ccc(C2CC(c3c(O)cc(C)oc3=O)=NCCS2)c(OC)c1", "note": "(centres unmarked) [SELPi, 3-[7-(2,4-Dimethoxyphenyl)-2,3,6,7-tetrahydro-1,4-thiazepin-5-yl]-4-hydroxy-6-methyl-2H-pyran-2-one]", "values": [
      {"measurement": "3D spheroid invasion", "setting": "[1]; PD-GB4 GB cells with human microglia, 0.5 µM SELPi or SELP knockdown, 72 h", "result": "reduced invasion"},
      {"measurement": "3D spheroid invasion, further human GB models", "setting": "[1]; human U251, PD-GB 1, PD-GB3", "result": "effect of SELPi on GB spheroids was observed"},
      {"measurement": "invasion of GB spheroids co-cultured with murine microglia", "setting": "[2]; mesenchymal, proneural and classical lenti-induced murine GB subtypes", "result": "significantly reduced the invasion"},
      {"measurement": "3D spheroid invasion, murine GL261", "setting": "[2]; murine GL261 GB model", "result": "effect of SELPi on GB spheroids was observed"},
      {"measurement": "survival", "setting": "iAGR53 tumors", "result": "prolonged the survival"},
      {"measurement": "tumor volume (MRI)", "setting": "iAGR53 tumors", "result": "significant reduction in tumor volume; also recorded: reduced tumor growth"},
      {"measurement": "complete blood count: blood lymphocytes", "setting": "[3]", "result": "increase in the absolute amount of blood lymphocytes"},
      {"measurement": "blood chemistry", "setting": "[3]; vs saline, vehicle", "result": "no significant changes"}
    ]}
  ]
}
